Measured values taken from ChEMBL document CHEMBL5390267, “Selective Activation of a TRPC6 Ion Channel Over TRPC3 by Metalated Type-B Polycyclic Polyprenylated Acylphloroglucinols” (J Med Chem, 2023).
Values after ≈ are worked out from the molar mass of the structure shown. Active and inactive are the calls of the source. No cut-off for these calls is given here.

Tests used:
[1] = Metabolic stability in mouse liver microsomes assessed as half life at 1 uM incubated for 120 mins in presence of NADPH by HPLC-MS/MS analysis; assay type: ADME, Microsome
[2] = Photostability of compound assessed as compound decomposition at 5 mg incubated for 1 week under natural sun light-irradiation and air; assay type: physicochemical; details: 168 h, time 1 weeks
[3] = Stability in CD-1 mouse plasma assessed as half life at 1 uM incubated for 15 mins by HPLC-MS/MS analysis; assay type: ADME, cell-free
[4] = Kinetic solubility of compound in 1% DMSO/PBS incubated for 5 mins under shaking condition by turbidimetric method; assay type: physicochemical; details: read-out: Kinetic_solubility
[5] = Metabolic stability in mouse liver microsomes assessed as intrinsic clearance at 1 uM incubated for 120 mins in presence of NADPH by HPLC-MS/MS analysis; assay type: ADME, Microsome; details: read-out: CLH
PC12 = assay: Agonist activity at TRPC6 channel in rat PC12 cells assessed as induction of intracellular calcium level at 10 uM by FLIPR calcium 6 assay; assay type: cell-based; details: time 2.0 hrs
[6] = biological target: T1, Short transient receptor potential channel 6 (Homo sapiens) (UniProt Q9Y210); assay: Agonist activity at […] TRPC6 channel in HEK293 cells assessed as intracellular calcium influx stimulation at 10 uM by Fura-2 AM staining based calcium influx assay; assay type: cell-based; details: filed as agonist
T1 sequence (whole entry): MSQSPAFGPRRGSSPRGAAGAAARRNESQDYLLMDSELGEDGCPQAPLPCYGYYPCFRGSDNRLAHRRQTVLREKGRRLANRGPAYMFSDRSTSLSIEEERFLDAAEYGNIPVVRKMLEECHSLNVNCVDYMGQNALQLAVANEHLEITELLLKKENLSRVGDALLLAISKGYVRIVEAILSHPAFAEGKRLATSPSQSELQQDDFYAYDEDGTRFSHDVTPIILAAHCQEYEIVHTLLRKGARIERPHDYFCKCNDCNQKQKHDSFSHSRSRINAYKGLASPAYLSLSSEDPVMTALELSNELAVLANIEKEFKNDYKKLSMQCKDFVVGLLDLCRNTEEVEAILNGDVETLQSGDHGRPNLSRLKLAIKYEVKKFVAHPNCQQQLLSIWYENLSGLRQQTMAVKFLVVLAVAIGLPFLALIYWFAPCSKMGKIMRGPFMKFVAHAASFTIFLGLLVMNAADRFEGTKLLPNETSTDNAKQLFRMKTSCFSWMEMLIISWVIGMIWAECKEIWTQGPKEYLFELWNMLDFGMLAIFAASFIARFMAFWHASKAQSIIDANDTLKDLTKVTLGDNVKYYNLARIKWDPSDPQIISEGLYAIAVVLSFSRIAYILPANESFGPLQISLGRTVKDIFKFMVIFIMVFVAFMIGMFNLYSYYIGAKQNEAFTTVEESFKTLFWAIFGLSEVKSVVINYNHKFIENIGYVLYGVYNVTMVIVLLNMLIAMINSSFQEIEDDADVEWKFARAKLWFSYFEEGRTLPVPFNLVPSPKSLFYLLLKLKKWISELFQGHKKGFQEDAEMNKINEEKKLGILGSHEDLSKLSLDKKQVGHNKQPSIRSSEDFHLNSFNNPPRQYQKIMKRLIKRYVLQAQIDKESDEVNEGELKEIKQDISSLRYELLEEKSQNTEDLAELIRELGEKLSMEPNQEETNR

[7] = biological target: T1, Short transient receptor potential channel 6 (Homo sapiens); assay: Agonist activity at TRPC6 channel in HEK293 cells assessed as intracellular calcium influx stimulation at 1 to 10 uM by Fura-2 AM staining based calcium influx assay; assay type: cell-based; details: filed as agonist, dose 1-10 µM
[8] = biological target: T2, Short transient receptor potential channel 3 (Homo sapiens) (UniProt Q13507); assay: Agonist activity at […] TRPC3 channel in HEK293 cells assessed as intracellular calcium influx stimulation at 10 uM by Fura-2 AM staining based calcium influx assay; assay type: cell-based; details: filed as agonist
T2 sequence (whole entry): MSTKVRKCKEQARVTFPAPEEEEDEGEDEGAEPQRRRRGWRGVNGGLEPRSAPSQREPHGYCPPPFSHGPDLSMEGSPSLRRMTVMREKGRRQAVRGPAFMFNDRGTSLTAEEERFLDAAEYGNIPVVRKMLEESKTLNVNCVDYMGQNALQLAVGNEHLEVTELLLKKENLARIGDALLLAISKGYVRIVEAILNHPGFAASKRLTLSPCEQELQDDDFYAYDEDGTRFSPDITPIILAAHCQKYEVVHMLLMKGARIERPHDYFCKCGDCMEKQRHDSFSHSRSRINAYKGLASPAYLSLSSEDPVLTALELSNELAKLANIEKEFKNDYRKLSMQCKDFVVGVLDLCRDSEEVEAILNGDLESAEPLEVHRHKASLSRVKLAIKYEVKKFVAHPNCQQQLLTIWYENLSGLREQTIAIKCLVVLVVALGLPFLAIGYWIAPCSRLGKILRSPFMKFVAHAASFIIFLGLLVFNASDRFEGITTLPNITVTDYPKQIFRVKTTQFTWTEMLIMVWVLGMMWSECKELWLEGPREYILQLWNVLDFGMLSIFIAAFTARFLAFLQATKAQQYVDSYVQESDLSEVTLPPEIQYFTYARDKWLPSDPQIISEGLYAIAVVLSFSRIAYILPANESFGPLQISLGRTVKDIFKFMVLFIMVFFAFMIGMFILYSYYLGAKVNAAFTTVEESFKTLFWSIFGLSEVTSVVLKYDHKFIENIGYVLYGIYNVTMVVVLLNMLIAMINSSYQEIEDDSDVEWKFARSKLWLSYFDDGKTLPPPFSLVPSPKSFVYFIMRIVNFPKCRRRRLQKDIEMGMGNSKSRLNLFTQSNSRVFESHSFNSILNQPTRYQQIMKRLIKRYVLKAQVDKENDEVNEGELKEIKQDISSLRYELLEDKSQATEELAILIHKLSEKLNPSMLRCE

## C=CC[C@@]12C[C@H](CC=C(C)C)C(C)(C)[C@@](CC=C)(C(=O)C(C(C)=O)=C1[O-])C2=O.[Na+]
[1]
  half-life at 1 µM: 0.525 h
[2]
  Stability: Stable
[3]
  half-life at 1 µM: 2.57 h
[4]
  solubility kinetic at 5 min: > 200 µM
[5]
  microsomal CLint at 1 µM: 44.7 µL/min/mg

## CC(C)=CCC[C@]1(C)[C@@H](CC=C(C)C)C[C@]2(CC=C(C)C)C(=O)C(CC=C(C)C)=C(O)[C@@]1(C(=O)C(C)C)C2=O
PC12; filed as agonist
  Activity: Active
[6]
  Activity: Active

## C=CC[C@@]12C[C@H](CC=C(C)C)C(C)(C)[C@@](CC=C)(C(=O)C(C(C)=O)=C1O)C2=O [listing 1 of 2 here]
[7]
  Activity: Active
PC12; filed as agonist
  Activity: Active
[6]
  Activity: Active

## CC(C)=CC[C@H]1C[C@@]2(CC=C(C)C)C(=O)[C@](CC=C(C)C)(C(=O)C(C(=O)c3ccccc3)=C2O)C1(C)C
PC12
  Activity: inactive

## CC(=O)C1=C(O)[C@@]2(CC=C(C)C)C[C@H](CC=C(C)C)C(C)(C)[C@@](CC=C(C)C)(C1=O)C2=O
PC12
  Activity: inactive

## CCCCCCCC/C=C\CCCCCCCC(=O)OC[C@H](CO)OC(C)=O
[8]
  Activity: Active
[6]
  Activity: Active

## C=CC[C@@]12C[C@H](CC=C(C)C)C(C)(C)[C@@](CC=C)(C(=O)C(C(C)=O)=C1O)C2=O [listing 2 of 2 here]
[4]
  solubility kinetic at 5 min: 49.1 µM (≈ 18.9 µg/mL)
